# Source: patent publication US20080057136A1, “Disinfecting Composition and Methods of Making and Using Same” (priority 2003, published 2008)
# Like-named read-outs stand apart in the source and are kept apart here.
# Legend:
# [1] = system: Trichophyton rubrum (ATCC 28188); assay: Time-Kill test (Example 9); type: cell-based
# Protocol: A panel of “challenge microorganisms,” including select bacteria, yeast, and fungi was used to assess the disinfecting properties of test compounds, e.g., AMC (DPT Laboratories). […] The procedure was based on the ASTM procedure entitled, “Standard Test Method for the Assessment of Microbial Activity of Test Materials Using Time-Kill Procedure.”
# A single lot of test material was prepared at various concentrations, along with multiple compounds prepared in various concentrations and combinations. These test materials were tested in duplicate against various bacteria, yeast and fungi. To minimize potential buffer interference and to minimize reduction of antimicrobial activity, the volume of the inoculum added to the test material was maintained at, or below, 1% of the total volume of the test. Samples were removed at various contact times. Serial dilutions were performed, and duplicate aliquots were plated. The plates were then incubated, and the average colony forming units (CFU) recovered per milliliter were determined for each contact time. The contact times for the test compounds with S. aureus, E. coli, P. aeruginosa, and C. albicans were 30 sec, 1 min, and 5 min. The contact times for the test compounds with B. subtilis were 1 and 10 min, 1 h, 2 h, 3 h, and 24 h. The contact times for the test compounds with T. rubrum were 30 sec, 1 min and 10 min. The contact temperature was ambient room temperature (20-21° C.).
# The fungus, T. rubrum, was inoculated onto Emmon's agar (EA) and incubated at 25-30° C. for 10-15 days. The mycelial mats from mature cultures were removed from the surface of at least 5 plates and macerated with sterile saline (SS) in a sterile glass tissue grinder. The suspension was filtered through sterile glass wool to remove the hyphae.
# The density of the conidial suspension was determined by serially diluting the prepared culture in BPDW. Aliquots from selected dilutions were plated on duplicate EA plates. The plates were incubated for 3-5 days at 25-30° C. and then each plate was examined for enumeration.
# The suspension was stored at 2-10° C. for 4 weeks before use. On the day of testing, the suspension was adjusted to yield approximately 5.0×10^8 CFU by dilution with BPDW.
# Compliant with the ASTM procedure cited above, the challenge microorganism was added to the test material by dispensing 99 ml of the test material into two sterile flasks, each containing a stir bar. The reaction flasks were allowed to equilibrate to the test temperature for at least 10 minutes. The flasks were placed in water baths on stir plates and maintained at the test temperature with stirring. A 1 ml aliquot of the prepared inoculum of the challenge microorganism was added to each flask to begin the contact period. At each contact time, 1 ml aliquot samples were removed and added to tubes containing 9 ml PBDW+. Serial 10-fold dilutions of each sample were then prepared in PBDW dilution blanks. Duplicate aliquots from selected dilutions were plated using the appropriate agar.
# Upon completion of all contact periods, all plates were inverted and incubated for the appropriate time and temperature as follows: bacteria and yeast were incubated over 2 nights at 37° C.±2° C., and the fungus was incubated for at least 5 nights at 25-30° C. Following incubation, all plates were removed, the colonies were counted and the CFU recovered per ml at each contact time were calculated.
# [2] = system: S. epidermidis ATCC 12228; assay: NCCLS broth microdilution MIC and MBC (Example 10); type: cell-based, Staphylococcus epidermidis
# Protocol: (§1) Strains of E. coli (ATCC 11229), D. aeruginosa (ATCC 15442), S. aureus (ATCC 25923), S. epidermidis (ATCC 12228), S. pyogenes (ATCC 19615), C. albicans (ATCC 10231), and T. rubrum (ATCC 28188) were used as “challenge microorganisms” in this study. Strains were removed from frozen stock and subcultured twice on blood agar to ensure that the strains had optimal growth and metabolic status before testing.
# (§2) Hibiclens (industry comparator) and ciprofloxacin were added to the bacterial panel. Amphotericin B, fluconazole, and Hibiclens were added as comparative agents in the fungal panels.
# (§3) For testing purposes, AMC, AMC components, and Hibiclens were diluted to 50% of the working solution to cover the proposed AMC use dilution of 20%.
# (§4) Microtiter panels were created on the day of MIC testing. A 50 μl aliquot of Mueller-Hinton broth (for bacterial strains) or RPMI 1640 (for fungal strains) was delivered to each well, except those in column one of the microtiter panel. The working solution of AMC and each of its components, and comparative agents were delivered to the designated wells in column one. AMC, components, and comparators were serially diluted across the panel. A 50 μl aliquot of bacterial or fungal suspension was then added to each well on the microtiter panel, using a new pipette tip for each aliquot. Panels were incubated at 35° C. for 16-20 h for the E. coli, P. aeruginosa, and S. aureus strains, 20-24 h for the S. pyogenes strain, and 48 h for the C. albicans strain.
# (§5) The 10 μl samples were plated on to blood agar and incubated at 35° C. for 24 h (E. coli and P. aeruginosa) or 48 h (S. aureus, S. epidermidis, and S. pyogenes). After incubation, colony counts for each panel well plated were recorded.
# (§6) The MIC % is expressed as g/100 ml or ml/100 ml. […] The MBC % is expressed as g/100 ml or ml/100 ml.
# [3] = system: S. aureus ATCC 25923; assay: NCCLS broth microdilution MIC and MBC (Example 10); type: cell-based, Staphylococcus aureus; conditions: Example 10
# Protocol: as §1, §2, §3, §4, §5, §6
# [4] = system: S. pyogenes ATCC 19615; assay: NCCLS broth microdilution MIC and MBC (Example 10); type: cell-based, Streptococcus pyogenes; conditions: Example 10; % as g/100 ml or ml/100 ml
# Protocol: as §1, §2, §3, §4, §5, §6
# [5] = system: E. coli ATCC 11229; assay: NCCLS broth microdilution MIC and MBC (Example 10); type: cell-based, Escherichia coli; conditions: % as g/100 ml or ml/100 ml
# Protocol: as §1, §2, §3, §4, §5, §6
# [6] = system: P. aeruginosa ATCC 15442; assay: NCCLS broth microdilution MIC and MBC (Example 10); type: cell-based, Pseudomonas aeruginosa; conditions: Example 10; % as g/100 ml or ml/100 ml
# Protocol: as §1, §2, §3, §4, §5, §6
# [7] = system: C. albicans ATCC 10231; assay: NCCLS broth microdilution MIC and MFC (Example 10); type: cell-based, Candida albicans
# Protocol: as §1
# (§7) Amphotericin B, fluconazole, and Hibiclens were added as comparative agents in the fungal panels.
# as §3
# (§8) Microtiter panels were created on the day of MIC testing. A 50 μl aliquot of Mueller-Hinton broth (for bacterial strains) or RPMI 1640 (for fungal strains) was delivered to each well, except those in column one of the microtiter panel. The working solution of AMC and each of its components, and comparative agents were delivered to the designated wells in column one. AMC, components, and comparators were serially diluted across the panel. A 50 μl aliquot of bacterial or fungal suspension was then added to each well on the microtiter panel, using a new pipette tip for each aliquot. Panels were incubated at 35° C. for 16-20 h for the E. coli, P. aeruginosa, and S. aureus strains, 20-24 h for the S. pyogenes strain, and 48 h for the C. albicans strain. T. rubrum panels were incubated for 3 to 4 days before MICs were read. […] Fungal MICs (%) were read using an 80% reduction in the growth endpoint relative to the turbidity of the growth control for AMC, its components, and fluconazole. For amphotericin B, the endpoint was read as the complete inhibition of growth.
# (§9) MFCs were determined in a similar manner.
# (§10) The endpoint for amphotericin B was read as complete inhibition of growth. The MIC % is expressed as g/100 ml or ml/100 ml. […] The MFC % is expressed as g/100 ml or ml/100 ml.
# [8] = system: T. rubrum ATCC 28188; assay: NCCLS broth microdilution MIC and MFC (Example 10); type: cell-based, Trichophyton rubrum; conditions: Example 10
# Protocol: as §1, §7, §3, §8, §9, §10
# [9] = system: C. albicans ATCC 10231; assay: NCCLS broth microdilution MIC and MFC (Example 11); type: cell-based, Candida albicans
# Protocol: (§11) Strains of C. albicans (ATCC 10231) and T. rubrum (ATCC 28188) were tested in this study. Strains were removed from frozen stock and subcultured twice on blood agar to ensure that the strains had optimal growth and metabolic status before testing. Strains were tested by NCCLS broth microdilution (M27-A2, 2002) and challenged with AMC solution and its individual components […] ), and isopropanol. Amphotericin B, fluconazole, terbinafine, and Hibiclens were added as comparator compounds. […] Microtiter panels were created on the day of MIC testing. A 50 μl aliquot of RPMI 1640 was delivered to each well except those in column one of the microtiter panel. The working solution of AMC and each of its components, and comparative agents were delivered to the designated wells in column one; AMC, components, and comparators were serially diluted across the panel. A 50 μl aliquot of fungal suspension was then added to each well on the microtiter panel, using a new pipette tip for each aliquot. […] For amphotericin B, the endpoint was read as the complete inhibition of growth. […] MFCs were performed to determine the concentration at which ≧99% of the starting fungal inoculum was killed. […] After incubation, colony counts for each panel well plated were recorded. […] The endpoint for amphotericin B was read as complete inhibition of growth.
# [10] = system: T. rubrum ATCC 28188; assay: NCCLS broth microdilution MIC and MFC (Example 11); type: cell-based, Trichophyton rubrum; conditions: Example 11
# Protocol: as §11
# [11] = component at 100%; cited from earlier work
# [12] = system: Hepatitis B virus; conditions: virus in dried human plasma exposed 10 min at 20 deg C. to 70% isopropanol; 9 months observation; cited from earlier work
# [13] = component at 100%; cited from earlier work; remark: listed apart in the source
# [14] = component at 100%; cited from earlier work; remark: listed apart in the source
# [15] = Acute oral toxicity, rat
# [16] = Acute dermal toxicity, rabbit
# [17] = Acute inhalation toxicity, rat
# [18] = component at 100%; cited from earlier work; remark: listed apart in the source
# [19] = MBC within one doubling dilution of the MIC
# [20] = 80% reduction in growth endpoint
# [21] = MFC within 1 doubling dilution of the MIC
# [22] = Estimated for AMC contained concentrations
compound,measurement,setting,value
CC(C)O [Isopropanol],Relative Kill Potency,[1],0.64
same,reduction of T. rubrum count,"[1]; Study 509-101, in 30 sec",not effective
same,30-Second Log Reduction from Initial T. rubrum CFU Values,"[1]; Table 25, first value column",0.8 Logs
same,"MCB, %",[2]; % as g/100 ml or ml/100 ml,24.5%
same,"MIC, %",[2]; % as g/100 ml or ml/100 ml,12.3%
same,bactericidal activity,[2]; [19],bactericidal activity
same,"MBC, %",[3]; % as g/100 ml or ml/100 ml,24.6%
same,"MIC, %",[3]; % as g/100 ml or ml/100 ml,12.3%
same,bactericidal activity,[3]; [19],bactericidal activity
same,"MBC, %",[4],12.3%
same,"MIC, %",[4],12.3%
same,"MIC, %",[5],6.1%
same,"MBC, %",[6],12.3%
same,"MIC, %",[6],3.1%
same,"MIC, %",[7]; [20],1.5%
same,"MFC, %",[7]; 99.9% inhibition of growth,1.5%
same,fungicidal activity,[7]; [21],Fungal activity
same,"MIC, %",[8]; [20],0.2%
same,"MFC, %",[8]; 99.9% inhibition of growth,0.4%
same,fungicidal activity,[8]; [21],Fungicidal activity was observed
same,"MFC, %",[9],1.5%
same,"MIC, %",[9]; [20],0.8%
same,fungicidal activity,[9]; [21],Fungicidal activity
same,"MFC, %",[10],3.1%
same,"MIC, %",[10]; [20],0.2%
same,fungicidal activity,[10]; [21],did not demonstrate fungicidal activity
same,Rat Oral LD50,[11],">5,000 mg/Kg"
same,infection after intravenous inoculation of treated viral material,[12],did not show signs of infection
same,Rabbit Dermal LD50,[13],"12,800 mg/Kg"
same,Rat Inhalation LC50,[14],72.6 mg/L
same,LD50,"[15]; rat, in vivo, po",> 5000 mg/kg
same,LD50,"[16]; rabbit, in vivo, topical or ocular",25600 mg/kg
same,LC50,"[17]; rat, in vivo, inhaled",145 µg/mL
"[O-2].[Zn+2] [Zn oxide (100%), Zn oxide]",Rat Oral LD50 (*Mouse data),[18],"7,950 mg/Kg"
same,Rabbit Dermal LD50,[13],">2,000 mg/Kg"
same,Rat Inhalation LC50,[14],>0.005 mg/L
same,Rat Oral LD50,[15]; [22],">>100,000 mg/Kg"
same,Rabbit Dermal LD50,[16]; [22],">>100,000 mg/Kg"
same,Rat Inhalation LC50,[17]; [22],>4.2 mg/L
